Test results published in US20220072075A1, “METHOD FOR PRODUCING NATURAL ANTIMICROBIAL SUBSTANCE AND ANTIMICROBIAL COMPOSITION COMPRISING NATURAL ANTIMICROBIAL SUBSTANCE PRODUCED BY THE SAME” (MY CO.,LTD, priority 2020, published 2022).

System: Staphylococcus aureus
Test: Antimicrobial Efficacy Test 4: elimination of Staphylococcus aureus, identification using a mass spectrometer
Type: cell-based
Conditions: substance added as named (70% ethanol, Febreze)
Procedure: In the present disclosure, “natural antimicrobial substance (n %)” means that the natural antimicrobial substance of the present disclosure is dissolved in multi-photocatalyst water or hypochlorous acid water (pH 5) at a concentration of n %. FIGS. 4 to 9 show the data obtained by identifying Staphylococcus aureus and Staphylococcus aureus plus specific substance using a mass spectrometer.

CCO [70% ethanol, ethanol]
elimination of Staphylococcus aureus (mass spectrum / bacterial identification): not eliminated
